Structures are written as SMILES.

This assay has as its target T1, binding of KRAS^G12C to SOS1 (Homo sapiens, UniProt Q07889).
T1 construct: Tag1 (unspecified)
T1 sequence (Q07889 1-1333): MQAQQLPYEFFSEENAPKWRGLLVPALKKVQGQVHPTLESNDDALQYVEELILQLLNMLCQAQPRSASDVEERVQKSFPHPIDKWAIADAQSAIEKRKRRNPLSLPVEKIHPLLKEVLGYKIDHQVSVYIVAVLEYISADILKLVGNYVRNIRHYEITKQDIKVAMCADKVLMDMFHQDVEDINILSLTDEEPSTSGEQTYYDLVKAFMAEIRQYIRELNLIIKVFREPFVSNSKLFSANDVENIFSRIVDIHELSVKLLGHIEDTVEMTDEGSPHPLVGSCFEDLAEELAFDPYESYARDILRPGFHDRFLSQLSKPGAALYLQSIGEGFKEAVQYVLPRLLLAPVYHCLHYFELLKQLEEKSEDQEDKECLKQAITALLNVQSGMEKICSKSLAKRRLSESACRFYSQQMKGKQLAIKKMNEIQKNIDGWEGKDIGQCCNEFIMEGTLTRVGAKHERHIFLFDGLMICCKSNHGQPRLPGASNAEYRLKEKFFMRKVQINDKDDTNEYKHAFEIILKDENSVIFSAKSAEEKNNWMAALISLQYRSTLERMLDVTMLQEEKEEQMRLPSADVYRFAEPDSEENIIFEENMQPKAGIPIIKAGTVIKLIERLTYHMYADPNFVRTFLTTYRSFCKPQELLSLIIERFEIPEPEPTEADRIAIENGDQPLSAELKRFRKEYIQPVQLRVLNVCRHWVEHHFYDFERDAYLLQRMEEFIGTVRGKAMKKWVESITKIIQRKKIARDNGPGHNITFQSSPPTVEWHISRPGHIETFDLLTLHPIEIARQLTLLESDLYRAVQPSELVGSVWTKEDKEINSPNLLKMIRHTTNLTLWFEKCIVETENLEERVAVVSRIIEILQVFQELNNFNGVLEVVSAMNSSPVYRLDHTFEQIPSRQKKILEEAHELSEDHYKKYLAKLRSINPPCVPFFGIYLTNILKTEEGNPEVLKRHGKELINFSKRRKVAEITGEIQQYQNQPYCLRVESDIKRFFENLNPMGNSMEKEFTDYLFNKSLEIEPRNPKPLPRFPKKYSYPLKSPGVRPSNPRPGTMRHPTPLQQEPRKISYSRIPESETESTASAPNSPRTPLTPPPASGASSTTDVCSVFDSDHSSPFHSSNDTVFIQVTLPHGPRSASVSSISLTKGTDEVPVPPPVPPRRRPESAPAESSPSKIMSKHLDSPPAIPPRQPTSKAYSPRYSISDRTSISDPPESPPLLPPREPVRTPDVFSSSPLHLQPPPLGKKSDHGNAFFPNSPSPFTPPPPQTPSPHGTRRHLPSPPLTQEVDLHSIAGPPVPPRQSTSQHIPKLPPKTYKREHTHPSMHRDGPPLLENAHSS
The experiment in a line: Inhibition of the binding of KRAS^G12C to SOS1. To be noted: Tag1-SOS1 / Tag2-KRAS^G12C, 2 h incubation at room temperature; read-out: IC50 (nM), inhibitory activity on the binding of KRAS^G12C to SOS1. The protocol: • (1) Gradient dilution of the test compounds: 10 mM mother solution (dissolved in 100% DMSO) was added to a 384-well test plate, the final content of DMSO being 0.25%.
(2) 5 μL of Tag1-SOS1 solution was added to the test plate, and 5 μL of dilution buffer was added to the control group.
(3) 5 μL of Tag2-KRAS^G12C solution was added to the test plate.
(4) 10 μL of Anti-Tag1-Tb3+ and Anti-Tag2-XL665 detection solution were added to the test plate. The plate was centrifuged at 1000 rpm for 1 min and incubated at room temperature for 2 h.
(6) The IC50 values for the compounds were finally calculated using GraphPad Prism software, and a curve was fit and plotted.
The inhibitory activity of the compounds of the examples of the present invention on the binding of KRAS^G12C enzyme to SOS1 is shown in Table 1.
As a reminder, the IC50 is the concentration that gives 50% inhibition. Take `COc1cc2nc(C)nc(N[C@H](C)c3cc(N)cc(C(F)(F)F)c3)c2cc1OCC1(C(C)OC)CC1` (single isomer, unassigned) [Example 65A]: the IC50 was determined as 18 nM.
Take `COc1cc2nc(C)nc(N[C@H](C)c3cc(N)cc(C(F)(F)F)c3)c2cc1OCC1(C(C)OC)CC1` (single isomer, unassigned) [Example 65B]: the IC50 is 7.3 nM.
For `COc1cc2nc(C)nc(N[C@H](C)c3cccc(C(F)(F)C(C)(C)O)c3F)c2cc1OC[C@@H]1CCCN1C` [Example 1] the value was 4.6 nM; for `COc1cc2nc(C)nc(N[C@H](C)c3cc(N)cc(C(F)(F)F)c3)c2cc1OC[C@@H]1CCCN1C` [Example 2], 8.5 nM; for `COc1cc2nc(C)nc(N[C@H](C)c3cc(N)cc(C(F)(F)F)c3)c2cc1OC[C@@H]1CCC(=O)N1C` [Example 6, (S)-5-(((4-(((R)-1-(3-amino-5-(trifluoromethyl)phenyl)ethyl)amino)-7-methoxy-2-methylquinazolin-6-yl)oxy)methyl)-1-methylpyrrolin-2-one], 13 nM.
Turning to `COc1cc2nc(C)nc(N[C@H](C)c3cc(N)cc(C(F)(F)F)c3)c2cc1OCCOC1CC1` [Example 7, (R)—N-(1-(3-amino-5-(trifluoromethyl)phenyl)ethyl)-6-(2-cyclopropoxy)-7-methoxy-2-meth ylquinazolin-4-amine], the concentration for half-maximal inhibition (IC50) worked out at 3.3 nM.
As to `COc1cc2nc(C)nc(N[C@H](C)c3cc(N)cc(C(F)(F)F)c3)c2cc1OCCN(C)C1CC1` [Example 8], the IC50 was found to be 1.9 nM.
For `COc1cc2nc(C)nc(N[C@H](C)c3cccc(C(F)(F)C(C)(C)O)c3F)c2cc1OCCN(C)CC1CCC1` [Example 9] the value was 3.4 nM.
For `COc1cc2nc(C)nc(N[C@H](C)c3cc(N)cc(C(F)(F)F)c3)c2cc1OCCN(C)CC1CCC1` [Example 10], the IC50 worked out at 2.9 nM.
In the case of `COc1cc2nc(C)nc(N[C@H](C)c3cc(N)cc(C(F)(F)F)c3)c2cc1OCC1(CN(C)C)CC1` [Example 11, (R)—N-(1-(3-amino-5-(trifluoromethyl)phenyl)ethyl)-6-((1-((dimethylamino)methyl)cyclopropyl)methoxy)-7-methoxy-2-methylauinazolin-4-amine], the IC50 was found to be 3.6 nM.
For `COc1cc2nc(C)nc(N[C@H](C)c3cccc(C(F)(F)C(C)(C)O)c3F)c2cc1OCC1(CN(C)C)CC1` [Example 12] the value was 8.3 nM.
`COc1cc2nc(C)nc(N[C@H](C)c3cc(N)cc(C(F)(F)F)c3)c2cc1OCCN(C)S(C)(=O)=O` [Example 13]: the IC50 is 2.5 nM.
For the compound `COc1cc2nc(C)nc(N[C@H](C)c3cc(N)cc(C(F)(F)F)c3)c2cc1OC[C@@H]1CCCN1C(C)=O` [Example 14], the IC50 amounted to 16 nM.
For `COc1cc2nc(C)nc(N[C@H](C)c3cc(N)cc(C(F)(F)F)c3)c2cc1OCC1(CN2CCOCC2)CC1` [Example 15, (R)—N-(1-(3-amino-5-(trifluoromethyl)phenyl)ethyl)-7-methoxy-2-methyl-6-((1-(morpholinylmethyl)cyclopropyl)methoxy)quinazolin-4-amine] the value was 6.9 nM.
For `COc1cc2nc(C)nc(N[C@H](C)c3cccc(C(F)(F)F)c3F)c2cc1OC[C@@H]1CCCN1C(=O)OC(C)(C)C` [Example 16], the IC50 came to 1090 nM.
On to `COc1cc2nc(C)nc(N[C@H](C)c3cccc(C(F)(F)F)c3F)c2cc1OC[C@@H]1CCCN1` [Example 17, N—((R)-1-(2-Fluoro-3-(trifluoromethyl)phenyl)ethyl)-7-methoxy-2-methyl-6-(((S)-pyrrolin-2-yl)methoxy)quinazolin-4-amine], for which the IC50 is 70 nM.
Turning to `COc1cc2nc(C)nc(N[C@H](C)c3cccc(C(F)(F)F)c3F)c2cc1OC[C@@H]1CCCN1C` [Example 18, N—((R)-1-(2-fluoro-3-(trifluoromethyl)phenyl)ethyl)-7-methoxy-2-methyl-6-(((S)-1-methylpyrrolin-2-yl)methoxy)quinazolin-4-amine], the IC50 is 36 nM.
As to `COc1cc2nc(C)nc(N[C@H](C)c3cccc(C(F)(F)C(C)(C)O)c3F)c2cc1OCCN(C)CC1CC(F)(F)C1` [Example 19], the IC50 came out at 9.4 nM.
For the compound `COc1cc2nc(C)nc(N[C@H](C)c3cccc(C(F)(F)F)c3F)c2cc1OC[C@@H]1CCCN1S(C)(=O)=O` [Example 20, N—((R)-1-(2-fluoro-3-(trifluoromethyl)phenyl)ethyl)-7-methoxy-2-methyl-6-(((S)-1-(methylsulfonyl)pyrrolidin-2-yl)methoxy)quinazolin-4-amine], the IC50 is 121 nM.
With `COc1cc2nc(C)nc(N[C@H](C)c3cc(N)cc(C(F)(F)F)c3)c2cc1OCCN(C)CC1(F)CC1` [Example 21, (R)—N-(1-(3-amino-5-(trifluoromethyl)phenyl)ethyl)-6-(2-(((1-fluorocyclopropyl)methyl)(methyl)amino)ethoxy)-7-methoxy-2-methylquinazolin-4-amine], the IC50 stood at 4.7 nM.
As for `COc1cc2nc(C)nc(N[C@H](C)c3cc(N)cc(C(F)(F)F)c3)c2cc1OCCN(C)CC1CC(F)(F)C1` [Example 22, (R)—N-(1-(3-amino-5-(trifluoromethyl)phenyl)ethyl)-6-(2-(((3,3-difluorocyclobutyl)methyl)(methyl)amino)ethoxy)-7-methoxy-2-methylquinazolin-4-amine], the IC50 was 7 nM.
With `COc1cc2nc(C)nc(N[C@H](C)c3cccc(C(F)(F)C(C)(C)O)c3F)c2cc1OC[C@H]1CNCCO1` [Example 23] the figure was 7.9 nM.
Consider `COc1cc2nc(C)nc(N[C@H](C)c3cccc(C(F)(F)C(C)(C)O)c3F)c2cc1OC[C@@H]1CNCCO1` [Example 24], for which the IC50 is 7.7 nM.
For `COc1cc2nc(C)nc(N[C@H](C)c3cccc(C(F)(F)C(C)(C)O)c3F)c2cc1OC[C@@H]1CN(C)CCO1` [Example 25] the value was 3.9 nM; for `COc1cc2nc(C)nc(N[C@H](C)c3cccc(C(F)(F)C(C)(C)O)c3F)c2cc1OC[C@@H]1COCCO1` [Example 26, 1-(3-((R)-1-((6-(((S)-1,4-Dioxan-2-yl)methoxy)-7-methoxy-2-methylquinazolin-4-yl)amino)ethyl)-2-fluorophenyl)-1,1-difluoro-2-methylpropan-2-ol], 9.2 nM.
As to `COc1cc2nc(C)nc(N[C@H](C)c3cccc(C(F)(F)C(C)(C)O)c3F)c2cc1OC[C@H]1COCCO1` [Example 27, 1-(3-((R)-1-((6-(((R)-1,4-Dioxan-2-yl)methoxy)-7-methoxy-2-methylquinazolin-4-yl)amino)ethyl)-2-fluorophenyl)-1,1-difluoro-2-methylpropan-2-ol], the concentration for half-maximal inhibition (IC50) is 8.5 nM.
On to `COc1cc2nc(C)nc(N[C@H](C)c3cc(N)cc(C(F)(F)F)c3)c2cc1OC[C@@H]1COCCO1` [Example 28, 6-(((S)-1,4-Dioxan-2-yl)methoxy)-N—((R)-1-(3-amino-5-(trifluoromethyl)phenyl)ethyl)-7-m ethoxy-2-methylquinazolin-4-amine], for which the IC50 is 7.9 nM.
As to `COc1cc2nc(C)nc(N[C@H](C)c3cccc(C(F)(F)C(C)(C)O)c3F)c2cc1OC[C@@H]1CN(S(C)(=O)=O)CCO1` [Example 29], the concentration for half-maximal inhibition (IC50) came to 4.7 nM.
For the compound `COc1cc2nc(C)nc(N[C@H](C)c3cc(N)cc(C(F)(F)F)c3)c2cc1OC[C@@H]1CCCN1S(C)(=O)=O` [Example 32, N—((R)-1-(3-amino-5-(trifluoromethyl)phenyl)ethyl)-7-methoxy-2-methyl-6-(((S)-1-(methylsulfonyl)pyrrolidin-2-yl)methoxy)quinazolin-4-amine], the IC50 was 31 nM.

For the origin of these results see patent US20240336606A1 (Suzhou Zelgen Biopharmaceuticals Co., Ltd., priority 2020, published 2024).
